# According to PMC6154583, “Optimized 4,5-Diarylimidazoles as Potent/Selective Inhibitors of Protein Kinase CK1δ and Their Structural Relation to p38α MAPK” (Molecules : A Journal of Synthetic Chemistry and Natural …, 2017):
# Experiments:
# [1] = test system: Panc89 cells; assay: MTT viability assay; assay type: cell-based, human; settings: Homo sapiens, 48 h incubation, mean ± SD, n = 3
# Experimental: (§1) The human pancreatic cancer cell lines Colo357 [61], Panc-1 [62], and MiaPaCa-2 [63] were grown in Dulbecco’s modified Eagle’s medium (DMEM). Panc89 [64] was grown in DMEM:RPMI-1640 medium in ratio 1:1. The human colon adenocarcinoma cell line HT-29 [65] was grown in McCoy’s 5A medium. All media were supplemented with 10% fetal calf serum (FCS), 100 units·mL^−1 penicillin, 100 µg∙mL^−1 streptomycin and 2 mM glutamine. All cells were grown at 37 °C in a humidified 5% carbon dioxide atmosphere.
# (§2) In order to determine the cytotoxic effects of investigated inhibitors conventional MTT assay were used. 1 × 10^4 cells∙well^−1 were seeded in 96-well cell culture plates and cultivated for 24 h. Cell lines were exposed to increasing concentrations of the indicated inhibitor compounds, with untreated and DMSO-treated cells serving as control. After an incubation period of 48 h 10 µL of MTT solution (5 mg∙mL^−1 in PBS) were added and cells were incubated for 4 h. MTT-containing medium was carefully removed and 100 µL acidic isopropanol (0.04 N HCl in isopropanol) per well were added. For dissolution of formazan crystals plates were shaken for 30 min on an orbital shaker in the dark. Finally, dissolved crystals were measured spectrophotometrically at […]. All experiments were performed in triplicate with four technical replicates per assay. Results were normalized considering the mean optical density value of control wells as 100%. GraphPad Prism 6 (La Jolla, CA, USA) software was used to calculate EC50 values.
# [2] = test system: Colo357 cells; assay: MTT viability assay; assay type: cell-based, human; settings: Homo sapiens, COLO357, 48 h incubation, mean ± SD, n = 3
# Experimental: as §1, §2
# [3] = target: EEF2K (Homo sapiens, UniProt O00418); assay: ProQinase 33PanQinase selectivity profiling; assay type: biochemical; settings: 100 nM, relative to control, read-out: Residual activity (%)
# Sequence of EEF2K (O00418 whole entry): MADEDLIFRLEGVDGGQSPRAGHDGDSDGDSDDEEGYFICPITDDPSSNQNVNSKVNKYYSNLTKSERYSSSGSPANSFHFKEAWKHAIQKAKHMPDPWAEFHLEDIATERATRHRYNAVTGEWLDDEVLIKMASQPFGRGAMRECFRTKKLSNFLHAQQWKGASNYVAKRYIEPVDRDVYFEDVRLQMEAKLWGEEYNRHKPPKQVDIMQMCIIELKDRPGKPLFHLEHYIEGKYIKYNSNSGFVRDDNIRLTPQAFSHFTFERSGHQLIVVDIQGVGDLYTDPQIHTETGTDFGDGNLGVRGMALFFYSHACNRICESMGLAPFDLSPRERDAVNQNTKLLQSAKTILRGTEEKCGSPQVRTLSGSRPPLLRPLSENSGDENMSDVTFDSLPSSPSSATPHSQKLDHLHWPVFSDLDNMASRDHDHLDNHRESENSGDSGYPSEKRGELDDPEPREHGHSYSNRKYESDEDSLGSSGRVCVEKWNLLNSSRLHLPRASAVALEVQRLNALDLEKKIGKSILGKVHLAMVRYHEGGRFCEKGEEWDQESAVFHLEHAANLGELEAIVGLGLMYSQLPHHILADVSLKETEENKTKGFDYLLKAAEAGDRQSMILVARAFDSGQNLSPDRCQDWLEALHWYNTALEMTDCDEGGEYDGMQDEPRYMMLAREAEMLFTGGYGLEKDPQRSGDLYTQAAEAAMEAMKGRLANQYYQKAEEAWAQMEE
# [4] = target: B-RAF (Homo sapiens, UniProt P15056); assay: ProQinase 33PanQinase selectivity profiling; assay type: biochemical; settings: 100 nM, relative to control, read-out: Residual activity (%)
# [5] = target: DYRK3 (Homo sapiens, UniProt O43781); assay: ProQinase 33PanQinase selectivity profiling; assay type: biochemical; settings: 100 nM, relative to control, read-out: Residual activity (%)
# Sequence of DYRK3 (O43781 whole entry): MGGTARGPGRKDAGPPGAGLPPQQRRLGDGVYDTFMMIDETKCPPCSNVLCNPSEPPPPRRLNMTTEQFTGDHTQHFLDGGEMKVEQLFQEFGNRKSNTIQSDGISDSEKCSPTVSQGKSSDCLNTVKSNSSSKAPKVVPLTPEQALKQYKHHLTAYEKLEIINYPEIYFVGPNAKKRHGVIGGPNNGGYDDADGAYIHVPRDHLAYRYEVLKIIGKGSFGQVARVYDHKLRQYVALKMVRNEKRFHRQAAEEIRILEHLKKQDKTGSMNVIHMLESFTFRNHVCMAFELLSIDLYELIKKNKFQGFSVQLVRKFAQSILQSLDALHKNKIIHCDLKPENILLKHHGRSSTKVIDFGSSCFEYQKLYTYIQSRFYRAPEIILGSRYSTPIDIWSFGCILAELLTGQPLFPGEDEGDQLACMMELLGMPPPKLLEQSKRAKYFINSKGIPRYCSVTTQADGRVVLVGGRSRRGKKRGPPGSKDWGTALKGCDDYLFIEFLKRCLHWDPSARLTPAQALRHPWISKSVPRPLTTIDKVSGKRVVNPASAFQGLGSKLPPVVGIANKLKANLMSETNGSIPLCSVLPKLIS
# [6] = target: DYRK2 (Homo sapiens, UniProt Q92630); assay: ProQinase 33PanQinase selectivity profiling; assay type: biochemical; settings: 100 nM, relative to control, read-out: Residual activity (%)
# [7] = target: T1, CSF1-R (Homo sapiens, UniProt P07333); assay: ProQinase 33PanQinase selectivity profiling; assay type: biochemical; settings: 100 nM, relative to control, read-out: Residual activity (%)
# T1 construct: purchased ProQinase GmbH
# [8] = target: T2, ACV-R2A (Homo sapiens, UniProt P27037); assay: ProQinase 33PanQinase selectivity profiling; assay type: biochemical; settings: 100 nM, relative to control, read-out: Residual activity (%)
# T2 construct: purchased ProQinase GmbH (Freiburg, Germany)
# [9] = target: LCK (Homo sapiens, UniProt P06239); assay: ProQinase 33PanQinase selectivity profiling; assay type: biochemical; settings: 100 nM, relative to control, read-out: residual activity
# Sequence of LCK (P06239 whole entry): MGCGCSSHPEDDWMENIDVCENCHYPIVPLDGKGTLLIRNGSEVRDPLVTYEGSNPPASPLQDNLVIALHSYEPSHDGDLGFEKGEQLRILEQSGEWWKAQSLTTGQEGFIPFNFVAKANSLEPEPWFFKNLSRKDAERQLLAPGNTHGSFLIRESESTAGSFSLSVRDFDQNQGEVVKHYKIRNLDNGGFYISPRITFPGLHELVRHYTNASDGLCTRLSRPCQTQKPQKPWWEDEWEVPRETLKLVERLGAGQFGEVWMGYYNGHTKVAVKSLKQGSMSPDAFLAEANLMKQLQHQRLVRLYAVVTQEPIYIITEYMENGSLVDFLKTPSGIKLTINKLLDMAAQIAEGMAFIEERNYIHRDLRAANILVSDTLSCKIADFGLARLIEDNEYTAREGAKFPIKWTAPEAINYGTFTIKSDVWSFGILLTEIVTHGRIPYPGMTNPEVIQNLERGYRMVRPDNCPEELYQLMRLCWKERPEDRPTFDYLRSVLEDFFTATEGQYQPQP
# [10] = target: CLK2 (Homo sapiens, UniProt P49760); assay: ProQinase 33PanQinase selectivity profiling; assay type: biochemical; settings: 100 nM, relative to control, read-out: Residual activity (%)
# Sequence of CLK2 (P49760 whole entry): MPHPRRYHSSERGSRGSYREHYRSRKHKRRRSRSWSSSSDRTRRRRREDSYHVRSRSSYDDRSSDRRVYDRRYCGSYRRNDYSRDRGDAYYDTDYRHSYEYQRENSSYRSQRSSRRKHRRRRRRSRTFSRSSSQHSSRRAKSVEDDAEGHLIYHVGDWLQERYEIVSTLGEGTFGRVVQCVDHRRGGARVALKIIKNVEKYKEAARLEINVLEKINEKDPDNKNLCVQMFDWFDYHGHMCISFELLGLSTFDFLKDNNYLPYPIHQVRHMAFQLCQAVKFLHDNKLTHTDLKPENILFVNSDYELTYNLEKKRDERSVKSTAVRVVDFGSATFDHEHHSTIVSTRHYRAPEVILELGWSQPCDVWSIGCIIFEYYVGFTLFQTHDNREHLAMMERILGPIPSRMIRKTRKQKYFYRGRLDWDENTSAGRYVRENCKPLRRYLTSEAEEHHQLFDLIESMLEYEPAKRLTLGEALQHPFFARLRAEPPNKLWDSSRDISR
# [11] = target: DAPK3 (Homo sapiens, UniProt O43293); assay: ProQinase 33PanQinase selectivity profiling; assay type: biochemical; settings: 100 nM, relative to control, read-out: Residual activity (%)
# [12] = target: EGF-R (Homo sapiens, UniProt P00533); assay: ProQinase 33PanQinase selectivity profiling; assay type: biochemical; settings: 100 nM, relative to control, read-out: Residual activity (%)
# [13] = target: Aurora-B (Homo sapiens, UniProt Q96GD4); assay: ProQinase 33PanQinase selectivity profiling; assay type: biochemical; settings: 100 nM, relative to control, read-out: Residual activity (%)
# Sequence of Aurora-B (Q96GD4 whole entry, the tested form may be a part): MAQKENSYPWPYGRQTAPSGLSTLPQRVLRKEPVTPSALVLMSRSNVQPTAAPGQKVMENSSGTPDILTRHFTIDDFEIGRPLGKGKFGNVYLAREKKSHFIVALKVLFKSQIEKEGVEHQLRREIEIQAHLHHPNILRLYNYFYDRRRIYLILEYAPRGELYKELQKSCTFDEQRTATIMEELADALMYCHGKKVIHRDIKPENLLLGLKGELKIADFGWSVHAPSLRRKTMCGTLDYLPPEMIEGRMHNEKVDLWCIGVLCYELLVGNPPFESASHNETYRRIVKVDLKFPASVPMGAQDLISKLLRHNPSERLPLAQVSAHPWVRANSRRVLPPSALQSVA
# [14] = target: T3, AKT3 aa106-479 (Homo sapiens, UniProt Q9Y243); assay: ProQinase 33PanQinase selectivity profiling; assay type: biochemical; settings: 100 nM, relative to control, read-out: Residual activity (%)
# T3 construct: AKT3 aa106-479; purchased ProQinase GmbH (Freiburg, Germany)
# T3 sequence (Q9Y243 106-479): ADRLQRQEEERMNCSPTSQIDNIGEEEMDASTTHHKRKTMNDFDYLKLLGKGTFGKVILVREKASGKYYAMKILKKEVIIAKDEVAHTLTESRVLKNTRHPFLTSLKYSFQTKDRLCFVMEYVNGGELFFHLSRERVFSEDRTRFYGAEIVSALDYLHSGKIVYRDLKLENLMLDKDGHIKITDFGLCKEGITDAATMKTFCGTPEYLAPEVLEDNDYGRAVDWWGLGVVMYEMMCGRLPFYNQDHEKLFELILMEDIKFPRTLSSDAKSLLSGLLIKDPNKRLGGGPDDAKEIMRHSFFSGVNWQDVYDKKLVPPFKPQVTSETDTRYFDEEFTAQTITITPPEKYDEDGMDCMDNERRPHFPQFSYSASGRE
# [15] = target: CDK1/CycB1 (Homo sapiens, UniProt P06493); assay: ProQinase 33PanQinase selectivity profiling; assay type: biochemical; settings: 100 nM, relative to control, read-out: Residual activity (%)
# [16] = target: T4, ACV-RL1 (Homo sapiens, UniProt P37023); assay: ProQinase 33PanQinase selectivity profiling; assay type: biochemical; settings: 100 nM, relative to control, read-out: Residual activity (%)
# T4 construct: purchased ProQinase GmbH (Freiburg, Germany)
# T4 sequence (P37023 22-503): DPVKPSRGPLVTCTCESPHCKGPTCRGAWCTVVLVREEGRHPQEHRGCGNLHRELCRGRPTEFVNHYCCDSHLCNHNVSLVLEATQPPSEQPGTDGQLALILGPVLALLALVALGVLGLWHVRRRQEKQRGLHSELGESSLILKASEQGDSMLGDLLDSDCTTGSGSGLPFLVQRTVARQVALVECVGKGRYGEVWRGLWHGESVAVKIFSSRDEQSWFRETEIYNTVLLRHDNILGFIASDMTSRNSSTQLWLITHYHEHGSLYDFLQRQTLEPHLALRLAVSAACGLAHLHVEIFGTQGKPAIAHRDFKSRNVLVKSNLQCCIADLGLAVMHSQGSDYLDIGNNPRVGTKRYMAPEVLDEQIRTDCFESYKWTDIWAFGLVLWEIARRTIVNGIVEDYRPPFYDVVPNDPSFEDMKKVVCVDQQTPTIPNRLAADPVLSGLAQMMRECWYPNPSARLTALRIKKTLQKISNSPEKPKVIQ
# [17] = target: EPHA2 (Homo sapiens, UniProt P29317); assay: ProQinase 33PanQinase selectivity profiling; assay type: biochemical; settings: 100 nM, relative to control, read-out: Residual activity (%)
# Sequence of EPHA2 (P29317 24-976): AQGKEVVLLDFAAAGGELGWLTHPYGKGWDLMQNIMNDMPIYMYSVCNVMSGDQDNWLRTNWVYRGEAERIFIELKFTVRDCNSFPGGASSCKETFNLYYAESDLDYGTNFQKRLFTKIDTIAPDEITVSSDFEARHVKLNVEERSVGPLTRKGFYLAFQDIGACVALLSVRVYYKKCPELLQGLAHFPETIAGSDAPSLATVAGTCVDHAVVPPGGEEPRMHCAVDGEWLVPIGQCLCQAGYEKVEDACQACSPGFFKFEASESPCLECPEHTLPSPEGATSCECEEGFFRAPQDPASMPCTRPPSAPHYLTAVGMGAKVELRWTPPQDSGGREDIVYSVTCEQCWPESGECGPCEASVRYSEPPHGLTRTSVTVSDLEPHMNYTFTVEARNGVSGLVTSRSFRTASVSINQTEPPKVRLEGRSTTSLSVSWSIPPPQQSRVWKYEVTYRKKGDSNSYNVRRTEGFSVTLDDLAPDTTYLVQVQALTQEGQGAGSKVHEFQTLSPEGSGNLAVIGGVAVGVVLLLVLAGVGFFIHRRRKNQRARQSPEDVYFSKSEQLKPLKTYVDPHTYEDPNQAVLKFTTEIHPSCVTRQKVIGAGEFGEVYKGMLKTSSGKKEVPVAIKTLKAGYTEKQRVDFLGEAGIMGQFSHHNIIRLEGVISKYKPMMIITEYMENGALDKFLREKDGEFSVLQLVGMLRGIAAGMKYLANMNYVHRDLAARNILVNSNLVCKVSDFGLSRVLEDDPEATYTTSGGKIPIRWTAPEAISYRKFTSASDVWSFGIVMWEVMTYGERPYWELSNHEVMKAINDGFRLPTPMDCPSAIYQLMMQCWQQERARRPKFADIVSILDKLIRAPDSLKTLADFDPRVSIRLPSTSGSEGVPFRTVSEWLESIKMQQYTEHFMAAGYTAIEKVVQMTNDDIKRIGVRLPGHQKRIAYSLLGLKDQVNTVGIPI
# [18] = target: CAMK2A (Homo sapiens, UniProt Q9UQM7); assay: ProQinase 33PanQinase selectivity profiling; assay type: biochemical; settings: 100 nM, relative to control, read-out: Residual activity (%)
# Sequence of CAMK2A (Q9UQM7 whole entry): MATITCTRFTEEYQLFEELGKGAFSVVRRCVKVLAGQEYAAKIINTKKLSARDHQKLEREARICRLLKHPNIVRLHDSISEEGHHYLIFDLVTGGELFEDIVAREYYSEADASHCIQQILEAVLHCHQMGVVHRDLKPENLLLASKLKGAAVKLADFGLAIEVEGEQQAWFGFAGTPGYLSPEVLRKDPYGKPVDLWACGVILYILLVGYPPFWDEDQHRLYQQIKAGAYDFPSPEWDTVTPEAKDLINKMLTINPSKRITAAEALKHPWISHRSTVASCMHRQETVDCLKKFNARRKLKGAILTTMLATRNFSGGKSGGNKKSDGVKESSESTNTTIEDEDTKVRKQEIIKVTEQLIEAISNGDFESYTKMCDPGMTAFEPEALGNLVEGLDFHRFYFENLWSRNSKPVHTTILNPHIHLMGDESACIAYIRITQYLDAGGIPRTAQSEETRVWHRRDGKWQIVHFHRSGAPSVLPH
# [19] = target: CDK2/CycA2 (Homo sapiens, UniProt P24941); assay: ProQinase 33PanQinase selectivity profiling; assay type: biochemical; settings: 100 nM, relative to control, read-out: Residual activity (%)
# [20] = target: JNK2 (Homo sapiens, UniProt P45984); assay: ProQinase 33PanQinase selectivity profiling; assay type: biochemical; settings: 100 nM, relative to control, read-out: residual activity
# [21] = target: T5, ACV-R2B (Homo sapiens, UniProt Q13705); assay: ProQinase 33PanQinase selectivity profiling; assay type: biochemical; settings: 100 nM, relative to control, read-out: Residual activity (%)
# T5 construct: purchased ProQinase GmbH (Freiburg, Germany)
smiles,measurement,setting,value
"COc1ccc(OC)c(CCC(=O)Nc2cc(-c3nc(SC)[nH]c3-c3ccc(F)cc3)ccn2)c1 [11b, 3-(2,5-Dimethoxyphenyl)-N-(4-(5-(4-fluorophenyl)-2-(methylthio)-1H-imidazol-4-yl)-pyridin-2-yl)-propanamide]",EC50,[1],1.5 ± 0.4 µM
same,EC50,[2],3.5 ± 0.3 µM
same,remaining activity at 0.1 µM,[3],84%
same,remaining activity at 0.1 µM,[4],91%
same,remaining activity at 0.1 µM,[5],97%
same,remaining activity at 0.1 µM,[6],99%
same,remaining activity at 0.1 µM,[7],104%
same,remaining activity at 0.1 µM,[8],98%
same,remaining activity at 0.1 µM,[9],26%
same,remaining activity at 0.1 µM,[10],101%
same,remaining activity at 0.1 µM,[11],85%
same,remaining activity at 0.1 µM,[12],113%
same,remaining activity at 0.1 µM,[13],92%
same,remaining activity at 0.1 µM,[14],83%
same,remaining activity at 0.1 µM,[15],95%
same,remaining activity at 0.1 µM,[16],99%
same,remaining activity at 0.1 µM,[17],95%
same,remaining activity at 0.1 µM,[18],95%
same,remaining activity at 0.1 µM,[19],87%
same,remaining activity at 0.1 µM,[20],21%
same,remaining activity at 0.1 µM,[21],97%
